≈ marks a conversion by molar mass, not a printed value.

Results on 4 compounds are retold here after patent US10695348B2, “Sulfonyl pyridyl TRP inhibitors” (Genentech, Inc., priority 2017, dated 2020).

The target in data set [1] is T1, human TRPA1 (Homo sapiens, UniProt O75762).
T1 construct: expressed in transfected cells; host or cells: CHO cells
The data set is described as follows: FLIPR Tetra calcium influx assay, CHO cells expressing TRPA1, cinnamaldehyde agonist (hTRPA1 CHO Ca2+ AUC EVO). The class given is cell-based. Here is the method: The IC50 ([…]) of compounds on the human and rat TRPA1 channels were determined using a FLIPR Tetra instrument. CHO cells expressing TRPA1 were plated into 384-well plates, incubated overnight at 37° C., and loaded with BD calcium indicator dye for 1 hr at 37° C. followed by 15 minutes at room temperature. The assay buffer was Hank's Balanced Salt Solution (HBSS) containing 20 mM HEPES (pH readjusted to 7.4) along with 0.02% BSA.
Following dye load and plate cool down, compounds were added to the cells using FLIPR Tetra. Plates were then incubated with compounds for 20 minutes at room temperature prior to adding agonist. Following this incubation, about an EC80 concentration of cinnamaldehyde (75 uM for human TRPA1 and 45 uM for rat TRPA1) was added to active the channels and block of cinnamaldehyde induced calcium influx was measured.
The IC50 results were fit with a standard Hill function, keeping the Hill coefficient (n) fixed to 1.5. Fixing the Hill coefficient will generally reduce variability of the IC50 determination. The IC50 results were individually examined to make sure the MIN and MAX points were set correctly prior to validation of the results.

Data set [2] is described as follows: Human protein plasma binding. The data set is classed as in vitro ADME. The settings on record: read-out: hPPB (human protein plasma binding) (converted). Here is the method:
Certain pharmacokinetic attributes were evaluated for sulfonyl pyridyl compounds of the present disclosure. The results are shown in Table 3 below where: “hTRPA1” refers to IC50 in nM; “hPPB” refers to human protein plasma binding in percent; “Corrected IC50” refers to the hTRPA1 values corrected for hPPB; “HLM-CLhep” refers to human liver microsome clearance in mL/min/kg; “K.Sol” refers to estimated aqueous solubility in μM; and “NR” refers to not run.
Human protein plasma binding may be measured according to the methods described by Banker et al., “Plasma/Serum Protein Binding Determinations,” Current Drug Metabolism (2008), 9, 854-859, and Kariv et al., “Development of a high throughput equilibrium dialysis method,” J. Pharm Sci. (2001) May; 90(5):580-87, as well as using commercially available assay kits by Wyatt, Cerep, Cyprotex and others.

The nature of data set [3]: Human liver microsome clearance / stability. The data set is classed as in vitro ADME. The conditions noted are these: human liver microsomes. The text has this:
Human liver microsome clearance (mL/min/kg) may be measured according to the method described by Ackley et al, “Metabolic Stability Assessed by Liver Microsomes and Hepatocytes”, in “Optimization in Drug Discovery” in the “Methods in Pharmacology and Toxicology” series (ISSN 1557-2153), pp. 151-162 (Yan, Ed., Print ISBN 978-1-58829-332-9, Springer (2004), as well as by using commercially available assay kits by Cerep, Cyprotex, Bd Bioscience and others.
Human liver microsome HLM stability may be measured as using the procedure of Ackley et al. as described above.
Background: Microsomes from liver hold many membrane-bound enzymes, among them those of drug oxidation.

Data set [4] in a line: Aqueous solubility (K. Sol). The class given is physicochemical. The settings on record: aqueous medium (not further specified), kinetic from dmso stock; read-out: K. Sol (estimated aqueous solubility). The text has this:
Aqueous solubility may be determined using the procedures reported by Alsenz et al., “High throughput solubility measurement in drug discovery and development,” Advanced Drug Delivery Reviews (2007) 59, 546-568 and Kibbey et al., “An Integrated Process for Measuring the Physicochemical Properties of Drug Candidates in a Preclinical Discovery Environment,” J. Pharmaceutical Sci. (2001) 90(8), 1164-1175.

Data set [5] addresses T1, human TRPA1. The data set is described as follows: Human Ca2+ MAX IC50 calcium assay. The data set is classed as cell-based. The conditions noted are these: Table 5; read-out: H Ca2+ MAX (human CA2+ MAX IC50). An excerpt:
Human Ca2+ MAX IC50 may be measured using one of the commercially available calcium assay kits provided by Molecular Devices, Abcam, Bio-Rad, Biovision, Enzo Lifesciences, Abnova, Sigma-Aldrich, or others.

The nature of data set [6]: GSH (glutathione) trapping of reactive metabolites. The class given is in vitro ADME. The settings on record: in vitro incubation with glutathione as trapping reagent. As to the method:
GSH trapping in a method for screening reactive metabolites for the potential to cause adverse drug reactions. Reactive metabolites may implicate clinical toxicity through drug compound bioactivation or inactivation of proteins. One such assessment utilizes in vitro incubations comprising glutathione (GSH) as a trapping reagent. LC/MS may be used to detect and characterize reactive intermediate formation as indicated by trapped glutathione adducts, as described by Yan et al., “Stable Isotope Trapping and High Throughput Screenings of Reactive Metabolites Using the Active MS Signature,” Anal. Chem. (2004), 76, 6835-6847.

[7] abbreviates: Table 3, read-out: hTRPA1 (IC50).
Where [8] appears, read: calculated from hTRPA1 IC50 and hPPB, read-out: Corrected IC50 (hTRPA1 values corrected for hPPB).

T1 sequence (O75762 whole entry): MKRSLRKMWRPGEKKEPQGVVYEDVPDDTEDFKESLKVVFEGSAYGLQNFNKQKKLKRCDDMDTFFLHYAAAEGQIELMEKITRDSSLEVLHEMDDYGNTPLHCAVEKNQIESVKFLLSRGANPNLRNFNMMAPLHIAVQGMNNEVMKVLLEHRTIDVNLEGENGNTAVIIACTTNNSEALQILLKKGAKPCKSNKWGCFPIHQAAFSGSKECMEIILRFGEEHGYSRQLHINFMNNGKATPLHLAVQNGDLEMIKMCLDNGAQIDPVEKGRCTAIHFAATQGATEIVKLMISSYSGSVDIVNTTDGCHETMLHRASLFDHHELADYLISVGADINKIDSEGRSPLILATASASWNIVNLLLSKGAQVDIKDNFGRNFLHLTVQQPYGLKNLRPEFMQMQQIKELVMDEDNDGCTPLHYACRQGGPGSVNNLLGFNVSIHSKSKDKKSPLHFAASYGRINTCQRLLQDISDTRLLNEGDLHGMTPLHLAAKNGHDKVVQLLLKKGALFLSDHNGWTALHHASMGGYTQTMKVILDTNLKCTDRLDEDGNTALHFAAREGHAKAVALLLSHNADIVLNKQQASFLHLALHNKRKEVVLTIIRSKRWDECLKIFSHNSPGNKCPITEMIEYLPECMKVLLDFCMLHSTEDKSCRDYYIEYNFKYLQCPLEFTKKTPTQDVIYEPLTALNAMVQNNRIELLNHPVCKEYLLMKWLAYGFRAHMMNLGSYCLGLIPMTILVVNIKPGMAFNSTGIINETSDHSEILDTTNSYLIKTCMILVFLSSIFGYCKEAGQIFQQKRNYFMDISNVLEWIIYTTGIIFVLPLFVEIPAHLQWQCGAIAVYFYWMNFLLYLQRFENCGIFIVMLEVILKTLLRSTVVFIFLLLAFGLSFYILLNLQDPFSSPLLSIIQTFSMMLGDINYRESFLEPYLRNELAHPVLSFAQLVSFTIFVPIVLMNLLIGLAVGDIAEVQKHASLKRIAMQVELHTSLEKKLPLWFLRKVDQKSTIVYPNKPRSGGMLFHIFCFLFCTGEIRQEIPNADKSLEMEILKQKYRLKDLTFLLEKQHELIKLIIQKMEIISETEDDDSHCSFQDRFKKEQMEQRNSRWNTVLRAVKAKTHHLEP

By IC50 is commonly meant the concentration that gives 50% inhibition. Usually solubility stands for the concentration that dissolves in the medium under given conditions. `C[C@H]1[C@H](F)C[C@@H](C(=O)NCc2cc(-c3cnc(C(F)(F)F)nc3)ncc2C(F)(F)F)N1S(=O)(=O)c1ccc(F)cn1` (single isomer, unassigned) [Pyridyl Sulfonamide 1]: the results for the IC50 on human TRPA1 [1] (setting [7]) and on human TRPA1 [1] (setting [8]) were 7.9 nM and 161 nM, respectively. Further, the fraction unbound in data set [2] was 0.049. Besides, the “HLM-CLhep (human liver microsome clearance)” value in data set [3] (Table 3) was determined as 4 mL/min/kg. In addition, the solubility in data set [4] is 30 µM (≈ 18.3 µg/mL).
On to `C[C@H]1[C@H](F)C[C@@H](C(=O)NCc2cc(-c3cnc(C(F)(F)F)nc3)ncc2F)N1S(=O)(=O)c1ccc(F)cn1` (single isomer, unassigned) [Pyridyl Sulfonamide 2], for which the results for the 50% inhibitory concentration (IC50) at human TRPA1 [1] (setting [7]) and at human TRPA1 [1] (setting [8]) were 404 nM and 5400 nM, respectively. In addition, the fraction unbound in data set [2] was 0.075. Further, the solubility in data set [4] was 4 µM (≈ 2.24 µg/mL).
On to `C[C@H]1[C@H](F)C[C@@H](C(=O)NCc2cc(-c3cnc(C(F)(F)F)nc3)cnc2C(F)F)N1S(=O)(=O)c1ccc(F)cn1` (single isomer, unassigned) [Pyridyl Sulfonamide 3], for which the IC50 at human TRPA1 [1] (setting [7]) is 329 nM; on human TRPA1 [1] (setting [8]), 1940 nM. Also, the fraction unbound in data set [2] is 0.17.
With `C[C@H]1[C@H](F)C[C@@H](C(=O)NCc2cc(-c3cnc(C(F)(F)F)nc3)ncc2C(F)(F)F)N1S(=O)(=O)c1ccc(Cl)nc1` [Compound 5], the “HLM (human liver microsome stability)” value in data set [3] (Table 5) is 6.6 mL/min/kg. Besides, the IC50 at human TRPA1 [5] came out at 5 nM. In data set [6], the “GSH trapping (glutathione trapping)” value is “positive”.
